{"source": "patent US20140323306A1", "about": "“Substituted 1,2,5-Oxadiazole Compounds and Their Use as Herbicides” (BASF SE, priority 2011, published 2014)", "system": "CHEAL", "test": "Greenhouse herbicidal test, post-emergence treatment", "format": "in vivo, Chenopodium album", "conditions": "post-emergence method, application rate 0.25 kg/ha; scale from 0 to 100", "source_text": "The seeds of the test plants were shown separately for each species. For the post-emergence treatment, the test plants were first grown to a height of 3 to 15 cm, depending on the plant habit, and only then treated with the active ingredients which had been suspended or emulsified in water. For this purpose, the test plants were either shown directly and grown in the same containers, or they were first grown separately as seedlings and transplanted into the test containers a few days prior to treatment. Depending on the species, the plants were kept at 10-25° C. or 20-35° C. The test period extended over 2 to 4 weeks. During this time, the plants were tended, and their response to the individual treatments was evaluated. Evaluation was carried out using a scale from 0 to 100. 100 means no emergence of the plants, or complete destruction of at least the aerial moieties, and 0 means no damage, or normal course of growth. A good herbicidal activity is given at values of at least 70 and a very good herbicidal activity is given at values of at least 85. The plants used in the greenhouse experiments belonged to the following species: [table]", "data": [{"smiles": "Cc1nonc1NC(=O)c1c(Cl)cc(Cl)cc1Cl", "note": "[I′.A-2, 2,4,6-trichloro-N-(4-methyl-1,2,5-oxadiazol-3-yl)benzamide]", "values": [{"measurement": "herbicidal activity against CHEAL", "result": "very good (a very good herbicidal activity is given at values of at least 85)"}]}]}
